Source: US9376393B2, “Quinoline compounds which are anti-angiogenic integrin alpha5 beta1 inhibitors for use in the treatment of fibrosis or fibrosis-related diseases” (Clanotech AB, priority 2012, dated 2016)
Values joined by “and” are separate entries in the source; they are usually repeats but may differ in a detail not shown here. Equal entries are not always repeated. Structures can show the parent of a compound that is named as a salt.

Tests used:
Assay type in all cases: in vivo
iNOS = assay: Bleomycin-induced lung fibrosis mouse model: immunohistochemical localization of iNOS
Method: (§1) Bleomycin-induced Lung Fibrosis Mouse Model
(§2) Thirty male CD-1 mice weighing 27.5±0.4 g were used in this study (obtained from Harlan Nossan, Milan, Italy), and were allowed access to food and water ad libitum. The mice were kept in laminar flow rooms at constant temperature and humidity with 3 animals in each cage. The temperature of the room was controlled between 20-26° C. and the humidity of the room was controlled between 40-70%.
(§3) Mice received a single intra-tracheal instillation of saline (0.9%), or saline containing bleomycin sulfate (BLM, 0.1 IU per mouse) in a volume of 100 μl. Mice were then sacrificed after 7 days by pentobarbitone overdose. […]
(§4) At 7 days after BLM administration, lung tissues were fixed in 10% PBS-buffered formaldehyde and 7 μm sections were prepared from paraffin-embedded tissues. […] Specific labeling was detected with a biotin-conjugated goat anti-rabbit IgG and avidin-biotin peroxidase complex (DBA). […]

COX-2 = assay: Bleomycin-induced lung fibrosis mouse model: immunohistochemical localization of COX-2
Method: as §1, §2, §3, §4

Nitrotyrosine = assay: Bleomycin-induced lung fibrosis mouse model: immunohistochemical localization of nitrotyrosine
Method: as §1, §2, §3, §4

TGF-β = assay: Bleomycin-induced lung fibrosis mouse model: immunohistochemical localization of TGF-β
Method: as §1, §2, §3, §4

Poly-ADP-ribose (PAR) = assay: Bleomycin-induced lung fibrosis mouse model: immunohistochemical localization of PAR
Method: as §1, §2, §3, §4

[1] = tested on: bleomycin-induced lung fibrosis; assay: Bleomycin-induced lung fibrosis mouse model: overall outcome
Text: as §1
(§5) Pulmonary fibrosis is a common response to various insults to the lung and is the end-point of a numerous and heterogenous group of disorders known as interstitial lung disease (ILD), characterized by chronic inflammation and progressive fibrosis of the pulmonary interstitium. […] instillation of the anti-tumour agent bleomycin (BLM) is the most commonly used animal model for pulmonary fibrosis.
as §2
(§6) Mice received a single intra-tracheal instillation of saline (0.9%), or saline containing bleomycin sulfate (BLM, 0.1 IU per mouse) in a volume of 100 μl. Mice were then sacrificed after 7 days by pentobarbitone overdose.
(§7) Animals were randomized into three experimental groups of 10 animals in each group, and were treated with either hydroxypropyl methyl cellulose (HPMC) (0.5%)/HPbetaCyclodextrin (20%) as a 5 ml/kg s.c. injection 30 min after intra-tracheal instillation of BLM and every 12 h thereafter until completion of the study, or with the compound I-4×HCl (4-[(4-Methoxyphenyl)amino]-6-(methylcarbamoyl)quinoline-3-carboxylic acid hydrochloride) at 30 mg/kg as a s.c. injection 30 min after intra-tracheal instillation of BLM and every 12 h thereafter until completion of the study.
The levels of various fibrotic markers were measured in the three groups (A, B and C). For each marker, the level measured in the bleomycin-injured, vehicle-treated group (BLM+Vehicle) was taken as 100%. In Table 3, the corresponding marker levels for the “sham injured” group treated with vehicle (Sham+Vehicle), and the bleomycin-injured group treated with compound I-4 (BLM+I-4×HCl), are indicated as a percentage of the level in the BLM+Vehicle group.

[2] = tested on: bleomycin-induced lung fibrosis; assay: Bleomycin-induced lung fibrosis mouse model: histological examination, scoring for lung fibrosis; parameters: key to Histological fibrosis score / Histological fibrosis score, Mean: 0 = normal lung, 8 = total fibrous obliteration of fields
Text: as §1, §5, §2, §6, §7
Lung biopsies were taken 7 days after BLM injection. After fixation at room temperature in buffered formaldehyde solution (10% in phosphate buffered saline [PBS]), the sections were prepared and stained by haematoxylin-eosin and observed with an Axiovision Zeiss microscope (Milan, Italy).
Scoring for lung fibrosis was graded on a scale from 0 to 8 by examining randomly chosen sections, with 5 fields per sample at a magnification of ×100. Criteria for grading lung fibrosis were as follows: grade 0, normal lung; grade 1, minimal fibrous thickening of alveolar or bronchiolar walls; grade 3, moderate thickening of walls without obvious damage to lung architecture; grade 5, increased fibrosis with definite damage to lung structure and formation of fibrous bands or small fibrous masses; grade 7, severe distortion of structure and large fibrous areas; and grade 8, total fibrous obliteration of fields (Cuzzocrea S, et al. Am J Physiol Lung Cell Mol Physiol. (2007) 292:L1095-104).
All data in the text are presented as mean±s.e. mean of n observations, where n represents the number of animals studied. All statistical analysis was calculated using GraphPad Prism 5 (GraphPad Software, San Diego, Calif., USA). Data without repeated measurements were assessed by a Mann-Whitney U t-test. Data with repeated measurements were assessed by a two-way ANOVA followed by a Bonferroni post-hoc test. A P-value of less than 0.05 was considered to be statistically significant.

lung oedema = assay: Bleomycin-induced lung fibrosis mouse model: measurement of lung oedema
Method: as §1, §2, §3
The wet lung weight was measured 7 days after BLM injection by careful excision of the lung from other adjacent extraneous tissues. The lung was then exposed for 48 h to 180° C. and the dry weight measured. Water content was then calculated by subtracting the dry weight from the wet weight.

Myeloperoxidase (MPO) = assay: Bleomycin-induced lung fibrosis mouse model: myeloperoxidase (MPO) assay in lung; settings: percentage of the level in the BLM+Vehicle group (100%); 30 mg/kg s.c. every 12 h; 7 days after BLM
Method: as §1, §2, §3
Myeloperoxidase (MPO) activity was determined 7 days after BLM injection. […] The rate of change in absorbance was measured spectrophotometrically at 650 nm. MPO activity was defined as the quantity of enzyme degrading 1 μmol of peroxide per min at 37° C. and was expressed in units per gram weight of wet tissue.

[3] = tested on: Thiobarbituric acid-reactant substances (TBARS); assay: Bleomycin-induced lung fibrosis mouse model: thiobarbituric acid-reactant substances in lung; settings: percentage of the level in the BLM+Vehicle group (100%); 30 mg/kg s.c. every 12 h; 7 days after BLM
Method: as §1, §2, §3
Thiobarbituric acid-reactant substances (TBARS) measurement, which is considered a good indicator of lipid peroxidation, was determined in the lung tissues collected at 7 days after BLM administration. […] The absorbance of the supernatant was measured spectrophotometrically at […]. Levels of TBARS are expressed as μM/100 mg of wet tissue.

TNF-α = assay: Bleomycin-induced lung fibrosis mouse model: measurement of cytokines, TNF-α; settings: percentage of the level in the BLM+Vehicle group (100%); 30 mg/kg s.c. every 12 h; 7 days after BLM
Method: as §1, §2, §6, §7
(§8) TNF-α and IL-1β levels were evaluated from lung tissues collected at 7 days after BLM administration. […]

IL-1β = assay: Bleomycin-induced lung fibrosis mouse model: measurement of cytokines, IL-1β; settings: percentage of the level in the BLM+Vehicle group (100%); 30 mg/kg s.c. every 12 h; 7 days after BLM
Method: as §1, §2, §6, §7, §8

[4] = Bleomycin-induced lung fibrosis mouse model: observations, body weight; settings: 30 mg/kg 30 min after intra-tracheal BLM and every 12 h thereafter
Method: as §1, §2, §3
At the time of routine monitoring, the animals were checked for any effects of acute lung injury and treatments on normal behavior such as mobility, food and water consumption (by looking only), body weight gain/loss (body weights were measured daily), eye/hair matting and any other abnormal effect. Death and observed clinical signs were recorded on the basis of the numbers of animals within each subset.

[5] = BLM-injured mice treated with compound, compared with sham group
[6] = 30 mg/kg 30 min after intra-tracheal BLM and every 12 h thereafter
[7] = percentage of the level in the BLM+Vehicle group (100%), 30 mg/kg s.c. every 12 h, 7 days after BLM

Compound: CNC(=O)c1ccc2ncc(C(=O)O)c(Nc3ccc(OC)cc3)c2c1 [Compound I-4, 4-[(4-Methoxyphenyl)amino]-6-(methylcarbamoyl)quinoline-3-carboxylic acid]
- iNOS level versus sham group (in words) (iNOS; [5]): reduced to levels similar to those of the sham group
- COX-2 level versus sham group (in words) (COX-2; [5]): reduced to levels similar to those of the sham group
- Nitrotyrosine level versus sham group (in words) (Nitrotyrosine; [5]): reduced to levels similar to those of the sham group
- TGF-β level versus sham group (in words) (TGF-β; [5]): reduced to levels similar to those of the sham group
- poly-ADP-ribose (PAR) level versus sham group (in words) (Poly-ADP-ribose (PAR); [5]): reduced to levels similar to those of the sham group
- levels of the markers induced by bleomycin (in words) ([1]; all markers of Table 3, versus BLM+Vehicle): statistically significantly reduced
- overall effect in the bleomycin model (in words) ([1]; conclusion from Tables 2 and 3): potent anti-fibrotic and ant-inflammatory effect

Compound: CNC(=O)c1ccc2ncc(C(=O)O)c(Nc3ccc(OC)cc3)c2c1 [I-4 × HCl, 4-[(4-Methoxyphenyl)amino]-6-(methylcarbamoyl)quinoline-3-carboxylic acid hydrochloride]
- acute lung injury (in words) [2, 6]: significant attenuation
- histological scoring of fibrosis (in words) [2, 6]: significant attenuation
- Histological fibrosis score, Mean ([2]; group mean of 10 mice, BLM-injured CD-1 mice, 30 mg/kg s.c. 30 min after BLM and every 12 h, 7 days after BLM, scale from 0 to 8): 2.40
- Histological fibrosis score ([2]; individual mice 1-10, BLM-injured CD-1 mice, 30 mg/kg s.c. 30 min after BLM and every 12 h, 7 days after BLM, scale from 0 to 8, hydrochloride, 30 mg/kg): 2.0 (4×) and 3.0 (5×) and 1.0
- Histological score for lung acute injury [2, 7]: 33%
- lung oedema (in words) (lung oedema; [6]): significant attenuation
- Wet/dry weight ratio (oedema) (lung oedema; [7]): 52%
- Lung myeloperoxidase (MPO) (Myeloperoxidase (MPO)): 47%
- Lung TBARS levels [3]: 45%
- Lung TNF-α levels (TNF-α): 45%
- Lung IL-1β levels (IL-1β): 50%
- iNOS (immunohistochemical localization) (iNOS; [7]): 0.1%
- COX-2 (immunohistochemical localization) (COX-2; [7]): 0.1%
- Nitrotyrosine (immunohistochemical localization) (Nitrotyrosine; [7]): 0.1%
- TGF-β (immunohistochemical localization) (TGF-β; [7]): 0.1%
- Poly-ADP-ribose (PAR) (immunohistochemical localization) (Poly-ADP-ribose (PAR); [7]): 0.1%
- weight loss (in words) [4]: significant attenuation
- lung inflammation (in words) [1, 6]: significant attenuation
